Experimental data taken from paper PMC12736313, “Curcumin and Resveratrol vs. Ferrocene-Modified Polyphenols: Role in Enhancing Protective Properties in Human Keratinocytes” (Pharmaceutics, 2025).
“Also recorded” adds a separate entry of the source.

What was measured:
DNA [1] = system: DNA; parameters: method as in PMID 21388716; conditions: cited from earlier work
DNA [2] = system: DNA; parameters: method as in PMID 21388716; conditions: cited from earlier work; remark: listed apart in the source
HaCaT cells [3] = assay: Apoptosis/necrosis by Muse Annexin V & Dead Cell Kit (flow cytometry); assay type: cell-based, human; conditions: 48 h
Experimental: (§1) The Muse™ Annexin V & Dead Cell Kit (Cat. No. MCH100105, Millipore, Merck Darmstadt, Germany) was used to determine the percentage of HaCaT cells in four different cell populations (live, early apoptotic, late apoptotic, and dead) after treatment of cells with RSV, RF, CRC, and CF (5–100 μM; for 48 h) according to the manufacturer’s protocol. A detailed protocol was elucidated in Murati et al.. The cells were analyzed using the Muse™ Cell Analyzer (Luminex, Austin, TX, USA). For each concentration tested, 3–7 independent biological samples were analyzed.

HaCaT cells [4] = assay: Cell viability by MTT assay; assay type: cell-based, human; conditions: 48 h; for IC20 / IC50 / IC80: MTT method
Experimental: (§2) The adherent HaCaT cell line was obtained from Cytion, Eppelheim, Germany. The HaCaT cell line was routinely grown in Dulbecco’s Modified Eagle Medium supplemented with 10% (v/v) fetal bovine serum (atmosphere of 95% air and 5% CO2 at 37 °C), obtained from Sigma-Aldrich Co., St. Louis, MO, USA. No antibiotics were used throughout the experiments. Cells were harvested with trypsin/EDTA solution (Sigma-Aldrich Co.) after reaching >70% confluence, diluted to the required density, and seeded in multiwell plates (Nunc, Roskilde, Denmark), depending on the experiments performed.
(§3) The cytotoxicity endpoints were determined by MTT (3-(4,5-dimethyl-2-thiazolyl)-2,5-diphenyl-2H-tetrazolium bromide) assay and Trypan blue method. For the MTT assay, cells were seeded in 96-well transparent flat-bottomed polystyrene plates at an initial concentration of 2.5 × 10^5 cells mL^−1 (100 μL/well) in growth medium supplemented with RSV, RF, CRC, and CF at concentrations of 5–100 μM. Concentrations were chosen based on our previously conducted research—reported cytotoxicity thresholds in HaCaT and other cell lines. RF and CF were synthesized in the Laboratory for Organic Chemistry at the University of Zagreb Faculty of Food Technology and Biotechnology, Zagreb, Croatia, while RSV and CRC were purchased from Sigma-Aldrich. After 48 h of incubation at 37 °C, cell viability was determined using the MTT assay. The absorbance was measured at 540 nm (Cary Eclipse spectrofluorimeter, Varian, Palo Alto, CA, USA). For the Trypan blue method, the cells were seeded in 6-well plates at an initial concentration of 2 × 10^4 cells mL^−1 (4 mL/well). After overnight incubation at 37 °C, the cells were treated with RSV, RF, CRC, and CF at different concentrations (5–100 μM). Cell viability was determined 48 h after treatment using the Trypan blue method. The stock solution of RSV was prepared in EtOH, while CRC and ferrocenyl analogues require DMSO due to higher lipophilicity. All stock solutions were stored at −20 °C until use. […] Cell viability is expressed as the percentage of treated cells compared to control cells. For each concentration tested, 3–15 independent biological samples were analyzed.

HaCaT cells [5] = assay: Autophagy by Muse Autophagy LC3-antibody based kit (flow cytometry); assay type: cell-based, human; conditions: 48 h; for order of the autophagy induction ratio (from highest to lowest): 100 µM
Experimental: The Muse™ Autophagy LC3-antibody based kit (Cat. No. MCH200109, Millipore) was used to determine the induction of autophagy in HaCaT cells after treatment with RSV, RF, CRC, and CF (5–100 μM) with some minor protocol modifications. The experimental procedure for both analyses was set up as for cell viability determination by the Trypan blue method. Autophagy induction data were read based on the fluorescence intensity of the sample (using Muse™ Cell Analyzer). For each concentration tested, 3–8 independent biological samples were analyzed.

HaCaT cells [6] = assay: Cell proliferation/viability by Trypan Blue exclusion method; assay type: cell-based, human; conditions: 48 h; for antiproliferative activity compared to RSV or CRC-treated cells: 5–100 µM
Experimental: as §2, §3

HaCaT cells [7] = assay: Intracellular ROS (DCFDA) induced by tert-butyl hydroperoxide; assay type: cell-based, human; conditions: then 50 µM tBHP; for doses with statistically significant (p < 0.05) lowering of ROS levels: HaCaT pretreated overnight; for effect on ROS induced by tBHP: HaCaT pretreated with 2.5–50 µM
Experimental: (§4) Two approaches were used for intracellular ROS induction. The first approach involved pretreatment of HaCaT cells with RSV, RF, CRC, and CF and, after overnight incubation, treatment with 50 μM tBHP (tert-butyl hydroperoxide). The second approach included pretreatment of the cells with CRC and CF, and after overnight incubation, exposure of the cells to UV (ultraviolet)-C light (15 W; 55 V; 254 nm; PURITEC HNS Linear Lamps, HNS 15 W G13, Osram GmbH, Munich, Germany) for 3 h. In brief, HaCaT cells were seeded at a concentration of 2.5 × 10^5 cells mL^−1 in black 96-well plates (100 µL/well) in growth medium and supplemented with RSV, RF, CRC, and CF at concentrations 2.5–50 μM. The DCFDA/H2DCFDA (2′,7′-dichlorofluorescin diacetate/2′,7′-dichlorodihydrofluorescein diacetate) assay was performed according to the manufacturer’s protocol with minor modifications (Cellular ROS Assay Kit Cat. No. ab113851, Abcam, Cambridge, UK). The intracellular ROS level was determined by measuring the fluorescence intensity (λex/em = 485/535 nm; Cary Eclipse spectrofluorimeter). Cells treated with the same volume of DMSO or EtOH in which RSV, RF, CRC, and CF were dissolved, and cells treated with 50 µM tBHP served as controls. In UV experiments, cells treated with the solvent (DMSO) and exposed to UVR (ultraviolet radiation) were considered as control samples. For each concentration tested, 3–8 independent biological samples were analyzed.

HaCaT cells [8] = assay: Intracellular ROS (DCFDA), UV-C-induced or endogenous; assay type: cell-based, human
Experimental: as §4

[9] = Apoptosis/necrosis by Muse Annexin V & Dead Cell Kit (flow cytometry); assay type: cell-based, human; conditions: human, HaCaT cells, highest concentration (100 µM), read-out: viability (live cells)
Experimental: as §1

[10] = value outside the range of the tested doses (>100 µM)
[11] = HaCaT, Trypan Blue method, from dose–response curves
[12] = Homo sapiens, from dose–response curves
[13] = Homo sapiens, HaCaT, Trypan Blue method, from dose–response curves

## COc1cc(C=CC(=O)C=C[c-]2cccc2)ccc1O.[Fe+2].c1cc[cH-]c1 [FDZ, 1-(p-hydroxy-m-methoxyphenyl)-5-ferrocenyl-penta-1,4-dien-3-one]
DNA [1]
  inhibition of AAPH-induced oxidation of DNA: in higher extent than CRC, feruloylacetone, and dehydrozingerone
DNA [2]
  effect on Cu2+/GSH-induced oxidation of DNA: protective effects

## COc1cc(C=CC(=O)C(=C[c-]2cccc2)C(=O)C=Cc2ccc(O)c(OC)c2)ccc1O.[Fe+2].c1cc[cH-]c1 [FCU, 1,7-bis(p-hydroxy-m-methoxyphenyl)-4-ferrocenylidene-hepta-1,6-diene-3,5-dione]
DNA [1]
  inhibition of AAPH-induced oxidation of DNA: in higher extent than CRC, feruloylacetone, and dehydrozingerone
DNA [2]
  effect on Cu2+/GSH-induced oxidation of DNA: protective effects

## COc1cc(/C=C/C(=O)CC(=O)[c-]2cccc2)ccc1O.[Fe+2].c1cc[cH-]c1 [CF, (E)-5-(4-hydroxy-3-methoxyphenyl)-1-ferrocenylpent-4-ene-1,3-dione]
HaCaT cells [3]; 5–100 µM
  effect on cell death / viability by flow cytometry: induced cell death significantly less compared to all compounds tested; also recorded: almost no effect on cell viability
HaCaT cells [4]; [10]
  IC20: 121 µM
  IC50: 208 µM
  IC80: 273 µM
HaCaT cells [5]
  order of the autophagy induction ratio (from highest to lowest): CRC > CF > RF ≈ RSV
HaCaT cells [5]; 5–100 µM
  effect on autophagy induction: reduced autophagic degradation activity; also recorded: decrease in the autophagy induction ratio
HaCaT cells [6]; Trypan Blue
  antiproliferative activity compared to RSV or CRC-treated cells: significantly lower antiproliferative activity
HaCaT cells [6]; [11]
  IC20: 75.4 µM
HaCaT cells [7]
  doses with statistically significant (p < 0.05) lowering of ROS levels: ≥ 5 µM
  effect on ROS induced by tBHP: most pronounced effect; also recorded: significantly reduced the ROS induced by tBHP
HaCaT cells [8]; HaCaT pretreated with 2.5–50 µM, UV-C 3 h
  effect on UV-induced ROS: did not exhibit significant antioxidant activity

## COc1cc(C=CC(O)=CC(=O)C=C[c-]2cccc2)ccc1O.[Fe+2].c1cc[cH-]c1 [FFT, 1-(p-hydroxy-m-methoxyphenyl)-3-hydroxy-7-ferrocenyl-hepta-1,4,6-trien-5-one]
DNA [1]
  inhibition of AAPH-induced oxidation of DNA: in higher extent than CRC, feruloylacetone, and dehydrozingerone
DNA [2]
  effect on Cu2+/GSH-induced oxidation of DNA: protective effects

## COc1cc(/C=C/C(=O)CC(=O)/C=C/c2ccc(O)c(OC)c2)ccc1O [CRC, (1E,6E)-1,7-bis(4-hydroxy-3-methoxyphenyl)-1,6-heptadiene-3,5-dione]
HaCaT cells [3]; 100 µM
  proportion of cells in early and late apoptosis: 88.40%
HaCaT cells [3]; highest concentration (100 µM)
  proportion of cells in late apoptosis: 88.34%
  proportion of cells in necrosis: 10.52%
[9]
  viability at 48 h, 100 µM: 1.08%
HaCaT cells [4]; MTT
  doses at which cell viability was almost completely impaired: ≥ 50 µM
HaCaT cells [4]; MTT, vs solvent control
  concentrations with statistically significant (p < 0.05) cytotoxicity: ≥ 20 µM
HaCaT cells [4]; [12]
  IC20: 7.28 µM
  IC50: 18.9 µM
  IC80: 34 µM
HaCaT cells [5]; 100 µM (highest dose)
  effect on autophagy induction: highest autophagy induction ratio; also recorded: most prominent autophagy induction ratio
HaCaT cells [5]
  order of the autophagy induction ratio (from highest to lowest): CRC > CF > RF ≈ RSV
HaCaT cells [6]; HaCaT, Trypan Blue
  doses at which cell viability was almost completely impaired: ≥ 50 µM
HaCaT cells [6]; [13]
  IC50: 11 µM
  IC80: 26.4 µM
HaCaT cells [7]
  doses with statistically significant (p < 0.05) lowering of ROS levels: ≥ 5 µM
  effect on ROS induced by tBHP: most pronounced effect
HaCaT cells [8]; HaCaT pretreated overnight, UV-C 3 h
  doses with protective effect against UV-induced ROS: ≥ 20 µM
HaCaT cells [8]; HaCaT, without UV exposure
  doses significantly (p < 0.05) reducing endogenous ROS production: ≥ 20 µM

## Oc1ccc(/C=C/c2cc(O)cc(O)c2)cc1 [RSV, 3,4′,5-trihydroxy-trans-stilbene]
HaCaT cells [3]; 100 µM
  level of cell death through necrotic or apoptotic pathways: ≤ 11%
HaCaT cells [3]; 100 µM, p < 0.05
  cell survival (proportion of viable cells in the culture) vs control: significantly lower
HaCaT cells [5]; 20 µM, p < 0.05
  effect on autophagy induction: stimulating
HaCaT cells [5]; 100 µM (highest dose)
  effect on autophagy induction: reducing
HaCaT cells [5]
  order of the autophagy induction ratio (from highest to lowest): CRC > CF > RF ≈ RSV
HaCaT cells [6]; [13]
  IC20: 3.22 µM
  IC50: 40.3 µM

## O=C(CCC[c-]1cccc1)Oc1ccc(/C=C/c2cc(OC(=O)CCC[c-]3cccc3)cc(OC(=O)CCC[c-]3cccc3)c2)cc1.[Fe+2].[Fe+2].[Fe+2].c1cc[cH-]c1.c1cc[cH-]c1.c1cc[cH-]c1 [RF, trans-3,5,4′-tri(4-ferrocenylbutanoyloxy)-stilbene]
HaCaT cells [3]
  doses after which the majority of cells remained in the early apoptosis fraction: ≥ 5 µM
HaCaT cells [5]; 5 µM
  effect on autophagy induction: slightly induced autophagy
HaCaT cells [5]; 100 µM (highest dose)
  effect on autophagy induction: lower autophagy-related LC3 protein
HaCaT cells [5]
  order of the autophagy induction ratio (from highest to lowest): CRC > CF > RF ≈ RSV
HaCaT cells [6]; Trypan Blue
  antiproliferative activity compared to RSV or CRC-treated cells: significantly lower antiproliferative activity
HaCaT cells [6]; [11]
  IC20: 10.8 µM
HaCaT cells [7]
  effect on ROS induced by tBHP: significantly reduced the ROS induced by tBHP
